Measured values published in BigSolDB 2.1.

Nc1cnc(Cl)cn1
solubility (mole fraction) (in ethanol, 278.15 K): 0.00222 | solubility (mole fraction) (in ethanol, 283.15 K): 0.00302 | solubility (mole fraction) (in ethanol, 288.15 K): 0.00388 | solubility (mole fraction) (in ethanol, 293.15 K): 0.00477 | solubility (mole fraction) (in ethanol, 298.15 K): 0.0058 | solubility (mole fraction) (in ethanol, 303.15 K): 0.00692 | solubility (mole fraction) (in ethanol, 308.15 K): 0.00813 | solubility (mole fraction) (in ethanol, 313.15 K): 0.00961 | solubility (mole fraction) (in ethanol, 318.15 K): 0.0111 | solubility (mole fraction) (in ethanol, 323.15 K): 0.0131 | solubility (mole fraction) (in ethylene glycol, 278.15 K): 0.000321 | solubility (mole fraction) (in ethylene glycol, 283.15 K): 0.000398 | solubility (mole fraction) (in ethylene glycol, 288.15 K): 0.000506 | solubility (mole fraction) (in ethylene glycol, 293.15 K): 0.000615 | solubility (mole fraction) (in ethylene glycol, 298.15 K): 0.000747 | solubility (mole fraction) (in ethylene glycol, 303.15 K): 0.000868 | solubility (mole fraction) (in ethylene glycol, 308.15 K): 0.00102 | solubility (mole fraction) (in ethylene glycol, 313.15 K): 0.00117 | solubility (mole fraction) (in ethylene glycol, 318.15 K): 0.00136 | solubility (mole fraction) (in ethylene glycol, 323.15 K): 0.00157 | solubility (mole fraction) (in methanol, 278.15 K): 0.00319 | solubility (mole fraction) (in methanol, 283.15 K): 0.00442 | solubility (mole fraction) (in methanol, 288.15 K): 0.00573 | solubility (mole fraction) (in methanol, 293.15 K): 0.0073 | solubility (mole fraction) (in methanol, 298.15 K): 0.00915 | solubility (mole fraction) (in methanol, 303.15 K): 0.0109 | solubility (mole fraction) (in methanol, 308.15 K): 0.0127 | solubility (mole fraction) (in methanol, 313.15 K): 0.0149 | solubility (mole fraction) (in methanol, 318.15 K): 0.0173 | solubility (mole fraction) (in methanol, 323.15 K): 0.0201 | solubility (mole fraction) (in n-propanol, 278.15 K): 0.000781 | solubility (mole fraction) (in n-propanol, 283.15 K): 0.001 | solubility (mole fraction) (in n-propanol, 288.15 K): 0.00126 | solubility (mole fraction) (in n-propanol, 293.15 K): 0.00152 | solubility (mole fraction) (in n-propanol, 298.15 K): 0.00181 | solubility (mole fraction) (in n-propanol, 303.15 K): 0.00214 | solubility (mole fraction) (in n-propanol, 308.15 K): 0.00252 | solubility (mole fraction) (in n-propanol, 313.15 K): 0.00291 | solubility (mole fraction) (in n-propanol, 318.15 K): 0.00334 | solubility (mole fraction) (in n-propanol, 323.15 K): 0.00383 | solubility (mole fraction) (in water, 278.15 K): 3.69e-05 | solubility (mole fraction) (in water, 283.15 K): 4.76e-05 | solubility (mole fraction) (in water, 288.15 K): 6.03e-05 | solubility (mole fraction) (in water, 293.15 K): 7.35e-05 | solubility (mole fraction) (in water, 298.15 K): 8.88e-05 | solubility (mole fraction) (in water, 303.15 K): 0.000106 | solubility (mole fraction) (in water, 308.15 K): 0.000123 | solubility (mole fraction) (in water, 313.15 K): 0.000141 | solubility (mole fraction) (in water, 318.15 K): 0.000161 | solubility (mole fraction) (in water, 323.15 K): 0.000182
